Measured values taken from BindingDB's records for doi:10.1074/jbc.M413155200 (Vertex Pharmaceuticals, 2005).

Target: Serine/threonine-protein kinase pim-1 (Homo sapiens, UniProt P11309)
Assay: Kinase Assay
Conditions: pH 7.6; 30 °C

Chain of Serine/threonine-protein kinase pim-1 (P11309 whole entry): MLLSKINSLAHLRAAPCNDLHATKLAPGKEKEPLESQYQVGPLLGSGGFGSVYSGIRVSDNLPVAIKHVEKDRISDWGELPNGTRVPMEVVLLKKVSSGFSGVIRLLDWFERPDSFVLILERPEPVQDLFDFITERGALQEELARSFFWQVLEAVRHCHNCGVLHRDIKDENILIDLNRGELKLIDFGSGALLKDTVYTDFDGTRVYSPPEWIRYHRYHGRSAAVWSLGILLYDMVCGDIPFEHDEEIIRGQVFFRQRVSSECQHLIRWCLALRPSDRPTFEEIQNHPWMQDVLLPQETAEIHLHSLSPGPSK

COC(=O)[C@@]1(O)C[C@H]2O[C@]1(C)n1c3ccccc3c3c4c(c5c6ccccc6n2c5c31)C(=O)NC4
IC50: 150 nM
